Reference: publication PMC5218480 (PLoS ONE, 2017)

Tested on: MV-4-11 cells
Test: Gene expression microarray analysis (Affymetrix PrimeView) and GSEA
Type: cell-based, human
Parameters: RFU PODN (11730768_x_at) / Fold change /veh PODN (11730768_x_at) / RFU LINC00158 (11744669_a_at) / Fold change /veh LINC00158 (11744669_a_at) / RFU DUSP10 (11751237_a_at) / Fold change /veh DUSP10 (11751237_a_at) / RFU ID3 (11757404_x_at) / Fold change /veh ID3 (11757404_x_at) / RFU PLEKHG5 (11737974_s_at) / Fold change /veh PLEKHG5 (11737974_s_at) / RFU LRRC4B (11730491_at) / Fold change /veh LRRC4B (11730491_at) / RFU GIMAP4 (11747438_a_at) / Fold change /veh GIMAP4 (11747438_a_at) / RFU KRT8 (11758183_x_at) / Fold change /veh KRT8 (11758183_x_at) / RFU CNN1 (11734310_a_at) / Fold change /veh CNN1 (11734310_a_at) / RFU VPS37D (11726825_at) / Fold change /veh VPS37D (11726825_at) / RFU C10orf10 (11716522_x_at) / Fold change /veh C10orf10 (11716522_x_at) / RFU KIR2DL2 /// KIR2DL4 /// KIR2DL5A /// KIR2DL5B /// KIR2DS1 /// KIR2DS2 /// KIR2DS3 /// KIR2DS4 /// KIR3DL3 /// KIR3DL3 /// KIR3DS1 (11738374_at) / Fold change /veh KIR2DL2 /// KIR2DL4 /// KIR2DL5A /// KIR2DL5B /// KIR2DS1 /// KIR2DS2 /// KIR2DS3 /// KIR2DS4 /// KIR3DL3 /// KIR3DL3 /// KIR3DS1 (11738374_at) / RFU C1QL1 (11718748_at) / Fold change /veh C1QL1 (11718748_at) / RFU TMPRSS4 (11747572_a_at) / Fold change /veh TMPRSS4 (11747572_a_at) / RFU HAMP (11756126_x_at) / Fold change /veh HAMP (11756126_x_at) / RFU RNFT2 (11725882_a_at) / Fold change /veh RNFT2 (11725882_a_at) / RFU NR4A2 (11747474_a_at) / Fold change /veh NR4A2 (11747474_a_at) / RFU ABCC12 (11746883_a_at) / Fold change /veh ABCC12 (11746883_a_at) / RFU TMEM136 (11760407_x_at) / Fold change /veh TMEM136 (11760407_x_at) / RFU CLDN22 /// WWC2 (11732394_at) / Fold change /veh CLDN22 /// WWC2 (11732394_at) / RFU HLA-DPB1 (11760878_x_at) / Fold change /veh HLA-DPB1 (11760878_x_at) / RFU SPINT1 (11716480_a_at) / Fold change /veh SPINT1 (11716480_a_at) / RFU GAP43 (11754022_s_at) / Fold change /veh GAP43 (11754022_s_at) / RFU A4GNT (11735810_at) / Fold change /veh A4GNT (11735810_at) / RFU PRB3 (11715151_x_at) / Fold change /veh PRB3 (11715151_x_at) / RFU TUBB4B (11761932_at) / Fold change /veh TUBB4B (11761932_at) / RFU CAPN14 (11732068_a_at) / Fold change /veh CAPN14 (11732068_a_at) / RFU TMCC2 (11721928_a_at) / Fold change /veh TMCC2 (11721928_a_at) / RFU IRGQ (11745062_a_at) / Fold change /veh IRGQ (11745062_a_at) / RFU FAM174B (11720279_a_at) / Fold change /veh FAM174B (11720279_a_at) / RFU TMPRSS4 (11748680_a_at) / Fold change /veh TMPRSS4 (11748680_a_at) / RFU FAM212B (11763350_a_at) / Fold change /veh FAM212B (11763350_a_at) / RFU PLEKHG5 (11743358_a_at) / Fold change /veh PLEKHG5 (11743358_a_at) / RFU ZSCAN30 (11745921_a_at) / Fold change /veh ZSCAN30 (11745921_a_at) / RFU CMKLR1 (11741424_a_at) / Fold change /veh CMKLR1 (11741424_a_at) / RFU LOC101060620 /// MAPK8IP1 (11723275_at) / Fold change /veh LOC101060620 /// MAPK8IP1 (11723275_at) / RFU SPTSSB (11747773_x_at) / Fold change /veh SPTSSB (11747773_x_at) / RFU PRSS12 (11739890_at) / Fold change /veh PRSS12 (11739890_at) / RFU BIN1 (11741810_x_at) / Fold change /veh BIN1 (11741810_x_at) / RFU WNT11 (11732464_a_at) / Fold change /veh WNT11 (11732464_a_at) / RFU C10orf10 (11716521_a_at) / Fold change /veh C10orf10 (11716521_a_at) / RFU C5orf56 (11738089_at) / Fold change /veh C5orf56 (11738089_at) / RFU CYB561 (11721691_x_at) / Fold change /veh CYB561 (11721691_x_at) / RFU ANKRD19P (11752326_a_at) / Fold change /veh ANKRD19P (11752326_a_at) / RFU OR2T12 /// OR2T33 /// OR2T8 (11738714_s_at) / Fold change /veh OR2T12 /// OR2T33 /// OR2T8 (11738714_s_at) / RFU VCAN (11748164_a_at) / Fold change /veh VCAN (11748164_a_at) / RFU JSRP1 (11732532_at) / Fold change /veh JSRP1 (11732532_at) / RFU KRTAP10-11 (11738290_x_at) / Fold change /veh KRTAP10-11 (11738290_x_at) / RFU MYO3A (11730013_a_at) / Fold change /veh MYO3A (11730013_a_at) / RFU EBF3 (11725865_a_at) / Fold change /veh EBF3 (11725865_a_at) / RFU CAMK2N1 (11719241_x_at) / Fold change /veh CAMK2N1 (11719241_x_at) / RFU C5orf56 (11738088_a_at) / Fold change /veh C5orf56 (11738088_a_at) / RFU OLFML3 (11715873_a_at) / Fold change /veh OLFML3 (11715873_a_at) / RFU LOC100653217 /// NTM (11731650_a_at) / Fold change /veh LOC100653217 /// NTM (11731650_a_at) / RFU MAPK11 (11762145_a_at) / Fold change /veh MAPK11 (11762145_a_at) / RFU FIZ1 (11724087_x_at) / Fold change /veh FIZ1 (11724087_x_at) / RFU OASL (11726364_x_at) / Fold change /veh OASL (11726364_x_at) / RFU SOX15 (11748057_x_at) / Fold change /veh SOX15 (11748057_x_at) / RFU CD79A (11719716_a_at) / Fold change /veh CD79A (11719716_a_at) / RFU HIST1H1D (11736915_at) / Fold change /veh HIST1H1D (11736915_at) / RFU CASKIN2 (11723855_a_at) / Fold change /veh CASKIN2 (11723855_a_at) / RFU LOC730098 (11760151_x_at) / Fold change /veh LOC730098 (11760151_x_at) / RFU OR4N2 (11742367_at) / Fold change /veh OR4N2 (11742367_at) / RFU PRRT2 (11749266_a_at) / Fold change /veh PRRT2 (11749266_a_at) / RFU SNX32 (11753110_a_at) / Fold change /veh SNX32 (11753110_a_at) / RFU CDHR5 (11726645_a_at) / Fold change /veh CDHR5 (11726645_a_at) / RFU RCAN1 (11760418_a_at) / Fold change /veh RCAN1 (11760418_a_at) / RFU FAM167A (11723789_a_at) / Fold change /veh FAM167A (11723789_a_at) / RFU FAM26E (11764081_at) / Fold change /veh FAM26E (11764081_at) / RFU ISYNA1 (11749810_s_at) / Fold change /veh ISYNA1 (11749810_s_at) / RFU ACY1 (11761880_at) / Fold change /veh ACY1 (11761880_at) / RFU 11764098_at / Fold change /veh 11764098_at / RFU SAMD14 (11745864_x_at) / Fold change /veh SAMD14 (11745864_x_at) / RFU NPB (11741838_a_at) / Fold change /veh NPB (11741838_a_at) / RFU TMPRSS6 (11731388_a_at) / Fold change /veh TMPRSS6 (11731388_a_at) / RFU KRTAP10-2 (11738614_at) / Fold change /veh KRTAP10-2 (11738614_at) / RFU ARHGAP8 /// PRR5-ARHGAP8 (11727945_x_at) / Fold change /veh ARHGAP8 /// PRR5-ARHGAP8 (11727945_x_at) / RFU KRTAP5-7 /// NADSYN1 (11734609_at) / Fold change /veh KRTAP5-7 /// NADSYN1 (11734609_at) / RFU RASL12 (11751679_a_at) / Fold change /veh RASL12 (11751679_a_at) / RFU CDKN2B (11736163_a_at) / Fold change /veh CDKN2B (11736163_a_at) / RFU PRF1 (11729649_at) / Fold change /veh PRF1 (11729649_at) / RFU, ZNF638 /// ZNF638-IT1 / Fold change vs veh, ZNF638 /// ZNF638-IT1 / RFU, PANK3 / Fold change vs veh, PANK3 / RFU, SH3YL1 / Fold change vs veh, SH3YL1 / RFU, ZEB2 / Fold change vs veh, ZEB2 / RFU, NRIP1 / Fold change vs veh, NRIP1 / RFU, PTTG1IP / Fold change vs veh, PTTG1IP / RFU, CAPN2 / Fold change vs veh, CAPN2 / RFU, MED14 / Fold change vs veh, MED14 / RFU, SNORA58 / Fold change vs veh, SNORA58 / RFU, C1orf63 / Fold change vs veh, C1orf63 / RFU, LRRFIP1 / Fold change vs veh, LRRFIP1 / RFU, NDUFAF7 / Fold change vs veh, NDUFAF7 / RFU, SLC12A2 / Fold change vs veh, SLC12A2 / RFU, IBTK / Fold change vs veh, IBTK / RFU, ESF1 / Fold change vs veh, ESF1 / Fold change vs veh, TMEM50B / RFU, TAOK1 / Fold change vs veh, TAOK1 / RFU, ACBD3 / Fold change vs veh, ACBD3 / RFU, TMA16 / Fold change vs veh, TMA16 / RFU, RWDD3 / Fold change vs veh, RWDD3 / RFU, BCAT1 / Fold change vs veh, BCAT1 / RFU, EDEM3 / Fold change vs veh, EDEM3 / RFU, TMEM33 / Fold change vs veh, TMEM33 / RFU, WDR75 / Fold change vs veh, WDR75 / RFU, AHCTF1 / Fold change vs veh, AHCTF1 / RFU, TFRC / Fold change vs veh, TFRC / RFU, ZDHHC17 / Fold change vs veh, ZDHHC17 / RFU, NOM1 / Fold change vs veh, NOM1 / RFU, ARL8B / Fold change vs veh, ARL8B / RFU, ZBTB11 / Fold change vs veh, ZBTB11 / RFU, TAMM41 / Fold change vs veh, TAMM41 / RFU, KIAA1704 /// LOC100996395 / Fold change vs veh, KIAA1704 /// LOC100996395 / RFU, ING1 / Fold change vs veh, ING1 / RFU, TRMT61B / Fold change vs veh, TRMT61B / RFU, FUBP3 / Fold change vs veh, FUBP3 / RFU, TP53 / Fold change vs veh, TP53 / RFU, TNKS2 / Fold change vs veh, TNKS2 / RFU, ZFP14 / Fold change vs veh, ZFP14 / RFU, ACTR2 / Fold change vs veh, ACTR2 / RFU, PPP3R1 / Fold change vs veh, PPP3R1 / RFU, PIK3R1 / Fold change vs veh, PIK3R1 / RFU, HNRNPA1 / Fold change vs veh, HNRNPA1 / RFU, RNF170 / Fold change vs veh, RNF170 / RFU, ZNF28 / Fold change vs veh, ZNF28 / RFU, RNGTT / Fold change vs veh, RNGTT / RFU, OGT / Fold change vs veh, OGT / RFU, BRD1 / Fold change vs veh, BRD1 / RFU, MARS / Fold change vs veh, MARS / RFU, ZNF655 / Fold change vs veh, ZNF655 / RFU, FAHD1 / Fold change vs veh, FAHD1 / RFU, BDP1 / Fold change vs veh, BDP1 / RFU, LRRCC1 / Fold change vs veh, LRRCC1 / RFU, ARID1A / Fold change vs veh, ARID1A / RFU, ZNF146 / Fold change vs veh, ZNF146 / RFU, ZNF330 / Fold change vs veh, ZNF330 / RFU, GPN3 / Fold change vs veh, GPN3 / RFU, C9orf123 / Fold change vs veh, C9orf123 / RFU, N4BP2L2 / Fold change vs veh, N4BP2L2 / RFU, ARFIP1 / Fold change vs veh, ARFIP1 / RFU, FAM179B / Fold change vs veh, FAM179B / RFU, BCL10 / Fold change vs veh, BCL10 / RFU, UHRF1BP1L / Fold change vs veh, UHRF1BP1L / RFU, BET1 / Fold change vs veh, BET1 / RFU, CNOT2 / Fold change vs veh, CNOT2 / RFU, ZNF268 / Fold change vs veh, ZNF268 / Fold change vs veh, ZNF507 / RFU, DGCR2 / Fold change vs veh, DGCR2 / RFU, WDSUB1 / Fold change vs veh, WDSUB1 / Fold change vs veh, HSP90B1 /// MIR3652 / RFU, ADSS / Fold change vs veh, ADSS / RFU, GK / Fold change vs veh, GK / RFU, ZNF148 / Fold change vs veh, ZNF148 / RFU, TAF9 / Fold change vs veh, TAF9 / RFU, SLC1A5 / Fold change vs veh, SLC1A5 / RFU, SLMO2 / Fold change vs veh, SLMO2 / RFU, ABCC4 / Fold change vs veh, ABCC4 / RFU, LOC101060439 /// RAP1B / Fold change vs veh, LOC101060439 /// RAP1B / RFU, RFX7 / Fold change vs veh, RFX7 / RFU, GTPBP10 / Fold change vs veh, GTPBP10 / RFU, CNEP1R1 / Fold change vs veh, CNEP1R1 / RFU, BIVM-ERCC5 /// ERCC5 / Fold change vs veh, BIVM-ERCC5 /// ERCC5 / RFU, ILF3 / Fold change vs veh, ILF3 / RFU 11762660_at / Fold change /veh 11762660_at / RFU VCAN (11757783_s_at) / Fold change /veh VCAN (11757783_s_at) / RFU DDX43 (11728927_at) / Fold change /veh DDX43 (11728927_at) / RFU KRT8 (11758188_x_at) / Fold change /veh KRT8 (11758188_x_at) / RFU NKD1 (11759106_at) / Fold change /veh NKD1 (11759106_at) / RFU SRD5A1 (11742802_a_at) / Fold change /veh SRD5A1 (11742802_a_at) / RFU TPSAB1 /// TPSB2 (11721975_s_at) / Fold change /veh TPSAB1 /// TPSB2 (11721975_s_at) / RFU GSTM3 (11746129_a_at) / Fold change /veh GSTM3 (11746129_a_at) / RFU IL23R (11737362_x_at) / Fold change /veh IL23R (11737362_x_at) / RFU TMEM51 (11727254_a_at) / Fold change /veh TMEM51 (11727254_a_at) / RFU PIWIL2 (11732686_x_at) / Fold change /veh PIWIL2 (11732686_x_at) / RFU ORM1 (11744905_x_at) / Fold change /veh ORM1 (11744905_x_at) / RFU CCDC152 (11743942_at) / Fold change /veh CCDC152 (11743942_at) / RFU ECM1 (11717891_a_at) / Fold change /veh ECM1 (11717891_a_at) / RFU IL23R (11748794_a_at) / Fold change /veh IL23R (11748794_a_at) / RFU TNFAIP8L3 (11732012_x_at) / Fold change /veh TNFAIP8L3 (11732012_x_at) / RFU MBOAT4 (11741988_at) / Fold change /veh MBOAT4 (11741988_at) / RFU 11764193_at / Fold change /veh 11764193_at / RFU TMEM53 (11763286_at) / Fold change /veh TMEM53 (11763286_at) / RFU MAGEB2 (11727129_at) / Fold change /veh MAGEB2 (11727129_at) / RFU TMEM200A (11744735_a_at) / Fold change /veh TMEM200A (11744735_a_at) / RFU CCDC152 (11751479_a_at) / Fold change /veh CCDC152 (11751479_a_at) / RFU FAM211A (11726209_a_at) / Fold change /veh FAM211A (11726209_a_at) / RFU RGS16 (11746705_a_at) / Fold change /veh RGS16 (11746705_a_at) / RFU VCAN (11755009_s_at) / Fold change /veh VCAN (11755009_s_at) / RFU RHOB (11743442_s_at) / Fold change /veh RHOB (11743442_s_at) / RFU RGS16 (11720943_a_at) / Fold change /veh RGS16 (11720943_a_at) / RFU RGS16 (11720944_at) / Fold change /veh RGS16 (11720944_at) / RFU, VPS4B / Fold change vs veh, VPS4B / RFU, CREB1 / Fold change vs veh, CREB1 / RFU, DNAJC13 / Fold change vs veh, DNAJC13 / RFU, GNAQ / Fold change vs veh, GNAQ / RFU, CDK5R1 / Fold change vs veh, CDK5R1 / RFU, ZRANB3 / Fold change vs veh, ZRANB3 / RFU, CUL4A / Fold change vs veh, CUL4A / RFU, CCNY / Fold change vs veh, CCNY / RFU, UFL1 / Fold change vs veh, UFL1 / RFU, COG3 / Fold change vs veh, COG3 / RFU, DIAPH2 / Fold change vs veh, DIAPH2 / RFU, SKA2 / Fold change vs veh, SKA2 / RFU, AFF3 / Fold change vs veh, AFF3 / RFU, LMF1 / Fold change vs veh, LMF1 / RFU, IPO11 / Fold change vs veh, IPO11 / RFU, DFFB / Fold change vs veh, DFFB / RFU, FOXP1 / Fold change vs veh, FOXP1 / RFU, CARD8 / Fold change vs veh, CARD8 / RFU, STRN3 / Fold change vs veh, STRN3 / RFU, ADK / Fold change vs veh, ADK / RFU, RASSF2 / Fold change vs veh, RASSF2 / RFU, WIPF1 / Fold change vs veh, WIPF1 / RFU, LARP1B / Fold change vs veh, LARP1B / RFU, RASA1 / Fold change vs veh, RASA1 / RFU, RB1 / Fold change vs veh, RB1 / RFU, PPFIA1 / Fold change vs veh, PPFIA1 / RFU, MAT2A / Fold change vs veh, MAT2A / RFU, CCT5 / Fold change vs veh, CCT5 / RFU, WDR92 / Fold change vs veh, WDR92 / RFU, CUX1 / Fold change vs veh, CUX1 / RFU, TTC7A / Fold change vs veh, TTC7A / RFU, TMEM135 / Fold change vs veh, TMEM135 / RFU, DEPTOR / Fold change vs veh, DEPTOR / RFU, CPM / Fold change vs veh, CPM / RFU, DNAJB6 / Fold change vs veh, DNAJB6 / RFU, CACNA2D3 / Fold change vs veh, CACNA2D3 / RFU, DTX4 / Fold change vs veh, DTX4 / RFU, TFCP2 / Fold change vs veh, TFCP2 / RFU, GMCL1 /// GMCL1P1 / Fold change vs veh, GMCL1 /// GMCL1P1 / RFU, AEBP2 / Fold change vs veh, AEBP2 / RFU, SNHG1 /// SNORD22 /// SNORD25 /// SNORD26 /// SNORD27 /// SNORD28 /// SNORD29 /// SNORD31 / Fold change vs veh, SNHG1 /// SNORD22 /// SNORD25 /// SNORD26 /// SNORD27 /// SNORD28 /// SNORD29 /// SNORD31 / Fold change (Aza/veh), C12orf56 (ProbeSet 11735607_a_at) / Fold change (ACY-1035/veh), C12orf56 (ProbeSet 11735607_a_at) / Fold change (Aza/veh), FGFR1OP (ProbeSet 11751329_s_at) / Fold change (ACY-1035/veh), FGFR1OP (ProbeSet 11751329_s_at) / Fold change (Aza/veh), VPS36 (ProbeSet 11739960_a_at) / Fold change (ACY-1035/veh), VPS36 (ProbeSet 11739960_a_at) / RFU SYPL1 (11715823_x_at) / Fold change /veh SYPL1 (11715823_x_at) / RFU IGFBP7 (11715501_s_at) / Fold change /veh IGFBP7 (11715501_s_at) / RFU REEP3 (11722064_at) / Fold change /veh REEP3 (11722064_at) / RFU IGLL1 (11728026_x_at) / Fold change /veh IGLL1 (11728026_x_at): dose or concentration left out as unconfirmed
Conditions: ProbeSet 11734937_a_at; LIST B

## Nc1ccc(-c2cccs2)cc1NC(=O)c1ccc2c(c1)cc(C1CC1)n2CCN1CCOCC1 [ACY-1035]
  Fold change vs veh, CNOT2: 0.83
